# Literature values, collected in PMC10985535 (RSC Advances, 2024).
# Test system: CT-DNA
structure (smiles),measurement,value
CC[n+]1c(-c2ccccc2)c2cc(N)ccc2c2ccc(N)cc21.[Br-] [EtBr],Ksv of classical intercalator,10^7 M^−1
